Tests used:
Format in all cases: cell-based
[1] = system: biofilm of a mixture of adherent bacteria (Deinococcus geothermalis, Pseudoxanthomonas taiwanensis and Meiothermus silvanus); test: Test for destructing a biofilm on stainless steel pegs, regrowth of new biofilm stained with safranin (Example 5); design: key: ++++: great amounts of biofilm were formed; ++: clearly reduced formation of the new biofilm, but not the complete inhibition thereof; −: completely inhibiting the new biofilm; details: total contact time 3 hours
Experimental: A test for destructing a biofilm was performed as described in the document FI 117056 B (Kemira Oyj). A biofilm was pregrown on lidplates having stainless steel pegs (3 d, 45° C., agitation at 150 rpm.). Clear filtrate of a fine paper machine served as the water (pH 7.6, ORP 71 mV), while a mixture of adherent bacteria (Deinococcus geothermalis, Pseudoxanthomonas taiwanensis and Meiothermus silvanus) grown in the laboratory was used for inoculation. After identical biofilms were grown on all the pegs of the lids, the lids were removed from the clear filtrate used for cultivation, washed with tap water and placed on plastic plates with 12 wells, one peg per well. 3.5 ml of the clear filtrate from the same paper machine, and the biocides to be tested were added in advance to each well. The pegs with biofilms were first immersed into the wells for 15 minutes, followed by removal of the plates for a moment for the addition of the other components of the biocidal combinations to the wells. Exposure to biocides was continued to attain a total contact time of 3 hours. Then, viability of the biofilms was determined by transferring the peglids to fresh 12-well plates where each well contained 2 ml of sterile cultivation broth, followed by cultivating the plates for 19 hours at 45° C. while mixing at 150 rpm. […]

[2] = system: aerobic bacteria present in broke; test: Bactericidal test on dilute broke of a board machine (Example 1); details: BCDMH 30 ppm alone; contact time 24 hours
Experimental: Dilute broke of a board machine (pH 7.8, oxidation reduction potential (ORP) 40 mV) was divided into 10 separate jars, and biocides to be tested were dosed. Concentrations are expressed in ppm (mg/l) of the commercially available product. In tests where two different agents were dosed into a single jar, the jar was closed after the first pipetting, the broke sample was vigorously agitated, followed by the addition of the second agent during 5 to 10 minutes. Jars were incubated under conditions corresponding to those in the broke system (45° C., mixing), and thereafter, viable aerobic bacterial counts were determined by cultivation after exposure periods of 4 and 24 hours.
In this bactericidal test on broke, killing efficacy of BCDMH and ePAA used alone and in combinations were compared, two thirds of BCDMH being replaced in the combinations with peracetic acid used in threefold amounts. For instance BCDMH 10 ppm versus ePAA 30 ppm versus BCDMH 3.3 ppm+ePAA 20 ppm.
The combination “BCDMH 3.3 ppm+ePAA 20 ppm” means that BCDMH was added prior to ePAA.

[3] = system: aerobic bacteria present in circulation water; test: Bactericidal test on circulation water from an alkaline fine paper machine, agar plate count (Example 6); details: for killing of bacteria: 3 hours; for re-growth of bacteria: single biocide only, dosages that had yielded an efficient kill, within 1 day
Experimental: Circulation water (pH 8.2, ORP+169 mV) was collected from an alkaline fine paper machine (producing uncoated copy paper) and divided in 11 plastic containers. When two different biocides were dosed in to same container, the peracid was dosed first, the sample mixed thoroughly, and the second biocide was added within 5 to 10 minutes. All biocide dosages are reported as ppm (mg/l) of the commercial product, for example 20 ppm of performic acid (PFA) equilibrium product equals about 2 ppm as performic acid active substance, 12 ppm of BCDMH product equals about 4 ppm as active chlorine and 30 ppm of MCDMH product equals about 3 ppm as active chlorine. After biocide dosing the containers were capped and incubated at paper machine temperature (45° C.) with continuous agitation. The killing efficacy of different biocide dosages was measured 3 hours and 1 day after the biocide dosing using agar plate count method (PCA agar, 45° C., and 2 days).

Row | SMILES | formation of new biofilm ([1]; 16 ppm of BCDMH alone) | inhibition of regrowth [2] | killing of bacteria ([3]; 12 ppm of BCDMH alone) | re-growth of bacteria [3] | formation of new biofilm ([1]; 60 ppm of MCDMH alone) | killing of bacteria ([3]; 45 ppm of MCDMH alone)
1 | CC1(C)C(=O)N(Cl)C(=O)N1Br [BCDMH, bromochlorodimethyl hydantoin] | ++ | inhibited more effectively by BCDMH 30 ppm than PAA alone | most efficient | active re-growth of bacteria had occurred |  | 
2 | CC1(C)C(=O)NC(=O)N1Cl [MCDMH, monochlorodimethyl hydantoin] |  |  |  | active re-growth of bacteria had occurred | ++++ | most efficient

— patent publication US9272927B2, “Method for preventing growth of microorganisms, and a combination for the prevention of microbial growth” (KEMIRA, OYJ, priority 2006, dated 2016)
